The values that follow are results of earlier work, collected in patent publication US20100087769A1, “BIOCIDIC MEDICAL DEVICES, IMPLANTS AND WOUND DRESSINGS” (OPLON B.V., priority 2007, published 2010).

“Also recorded” adds a separate entry of the source. Where two headings read alike, the source gives them in different places.

The test system of series [1] is aerobic gram-negative bacilli, P. aeruginosa. The note with it: spectrum as listed in the cell.
Assay in series [2]: not given
This is another data set of the same source.

The subject of series [3] is other Candida spp. and fungi.
In series [4] the test system is Aspergillus or Fusarium spp. The note with it: powder, 6 million units/g; four burn patients.
The conditions of series [5]: topical.
A further series deals with MRSA. The following applies: topical; 1% silver sulfadiazine, 2% mupirocin, 2% fusidic acid.

`NCc1ccc(S(N)(=O)=O)cc1` [Mafenide acetate]: the Antibacterial activity entry in series [1] is given as “Broad spectrum against”. Further, the Major toxicity entry (in vivo) is reported as “Metabolic”. Also, the reduction in mortality result in series [2] (burns of 40 to 79% TBSA) is recorded as “greater than 10%”. For the same compound, in series [2] (patients with smaller or much larger burn injuries), the effect on mortality result was “only a minimal effect”.
As for `C[C@@H]1[C@H](O)[C@@H](C)/C=C/C=C/CC/C=C/C=C/C=C/C=C/C(O[C@H]2O[C@H](C)[C@@H](O)[C@H](N)[C@@H]2O)CC2O[C@](O)(CC(O)C(O)CCC(O)CC(O)CC(O)CC(=O)O[C@H]1C)CC(O)C2C(=O)O` (stereo partly drawn) [Nystatin], the “concentration needed to inhibit” value in series [3] is 6.25 µg/mL. Besides, the “treatment of angioinvasive fungal infections” value in series [4] is recorded as “effective”. Also, the concentration that inhibits in the series on Candida albicans is 3 µg/mL.
For the compound `O=[N+]([O-])[O-].[Ag+]` [Silver nitrate], the Antibacterial activity entry in series [1] is reported as “Bacteriostatic against; also recorded: limited antifungal”. For the same compound, under “topical”, the Major toxicity result is on record as “Electrolyte”. In series [5], the Eschar penetration result was “None”.
Turning to `C/C(=C\C(=O)OCCCCCCCCC(=O)O)C[C@@H]1OC[C@H](C[C@@H]2O[C@H]2[C@@H](C)[C@H](C)O)[C@@H](O)[C@H]1O` [mupirocin, pseudomonic acid A], the “reducing local wound bacterial counts and preventing systemic infection” value with MRSA was “equally effective”.
On to `CC(=O)O[C@H]1C[C@@]2(C)[C@@H](C[C@@H](O)[C@H]3[C@@]4(C)CC[C@@H](O)[C@@H](C)[C@@H]4CC[C@@]32C)/C1=C(\CCC=C(C)C)C(=O)O` [fusidic acid], for which the “reducing local wound bacterial counts and preventing systemic infection” value in the series on MRSA is given as “equally effective”.
